System: NIH3T3 cell
Experiment: NIH3T3 cell adhesion on film
Format: cell-based
Conditions: seeded 10^4 cells/cm^2 in D-MEM, 5% CO2, 37° C., 1 hour, washed three times with PBS, counted at five positions
Method: A NIH3T3 cell suspended in D-MEM was added onto the resulting Gly-Arg-Gly-Asp-Ser-conjugated poly(Pro-Hyp-Gly) film at a ratio of 10^4 cells/cm^2, followed by allowing to stand in 5% CO2 at 37° C. for 1 hour. The non-adhered cell was washed out three times with PBS and the number of adhered cells was counted at five positions on the film.

Substance | number of adhered cells (average)
bovine collagen type I: Bovine collagen type I coated on a plastic dish, comparison surface | 6,000 cells/cm^2
poly(Pro-Hyp-Gly) | 2,000 cells/cm^2
